Data: patent US20080063703A1, “Active Drug Delivery in the Gastrointestinal Tract” (priority 2004, published 2008)
Where two headings read alike, the source gives them in different places.

Experiments:
[1] = test system: proabsorptive effect of NO; details: addition of NOS inhibitors; cited from earlier work
rat jejunum = test: In vitro macromolecule permeation of rat jejunum sections with/without electrical stimulation and L-NAME (FIG. 37); format: in vitro ADME
Procedure: Reference is now made to FIG. 37, which is a graph showing in vitro measurements of macromolecule permeation, measured in accordance with an embodiment of the present invention. Several sections of rat jejunum were prepared, and the permeation of the sections to Leuprolide and Octreotide peptides was measured with and without electrical stimulation, and with and without application of 1 mM N^G-Nitro-L-Arginine methyl ester (L-NAME), a non-specific nitric oxide (NO) synthase (NOS) inhibitor. The electrical stimulation included the following parameters: 18 Hz, 1 ms pulses, and 5 mA (corresponding to a voltage of about 2 V).

[2] = test system: electrically-induced NO synthesis and release; details: NO synthase inhibitor added; cited from earlier work
rat intestine = details: all regions of the rat intestine; cited from earlier work
mouse ileum = details: addition of NO donors to mouse ileum; cited from earlier work
proximal ileum tissue = test: Octreotide permeation via proximal ileum tissue in diffusion chamber 500 with LITV pulses (FIG. 36); format: in vitro ADME, Wistar rat; details: 18 Hz, 3 mA, 1 millisecond vs control, at 7 minutes (FIG. 36)
Procedure: (§1) Reference is now made to FIG. 26, which is a schematic cross-sectional illustration of an experimental diffusion chamber 500, and FIGS. 27-36, which are graphs showing in vitro experimental results generated in accordance with respective embodiments of the present invention. A number of 300 g Wistar rats were anaesthetized using Ketamine (100 mg/kg) and Xylazine (10 mg/kg). Two 3 cm-long sections 510 of the intestine were removed from each rat and opened along the mesenterial line so that two rectangular pieces of tissue were available from each rat (a single tissue section 510 is shown in FIG. 26). For the experiments described hereinbelow with reference to FIGS. 27-35, the intestinal sections were taken from the upper jejunum, while for the experiment described hereinbelow with reference to FIG. 36, the intestinal sections were taken from the upper jejunum, proximal ileum, and distal ileum. The serosal and muscular layers of the intestinal sections were removed using a microscope cover glass. […]
(§2) In each of the experiments described hereinbelow with reference to FIGS. 27-36, beginning upon replacement of the HBSS in donor cell 520 with octreotide, a train of LITV pulses was applied through electrodes 530, and the permeation of octreotide from donor cell 520 to acceptor cell 522 via tissue segment 510 was measured. […]

[3] = test system: upper jejunum tissue segments; test: Octreotide permeation via rat upper jejunum tissue segment in diffusion chamber, with or without LITV pulses (FIG. 24); format: in vitro ADME, Wistar rat; details: LITV pulses 12 Hz, 1 millisecond, 3 mA vs control without stimulation; 1 mg/ml octreotide acetate, 90-minute period
Procedure: Reference is now made to FIG. 24, which is a graph showing in vitro experimental results measured in accordance with an embodiment of the present invention. A 300 g Wistar rat was anaesthetized using Ketamine (100 mg/kg) and Xylazine (10 mg/kg). Two 3 cm-long sections of the upper jejunum were removed and opened along the lumen so that two rectangular pieces of tissue were available. The serosal and muscular layers were removed using a microscope cover glass. The intestinal tissue segments were placed on slides and inserted into diffusion chambers similar to experimental diffusion chamber 500, described hereinbelow with reference to FIG. 26. […] The tissue segments on the slides completely covered the windows between the donor and acceptor cells. The cells were filled with 15 ml of Hank's Balanced Salt Solution (HBSS) (pH 7.4). The donor cells were then divided into two separate sections with a dividing board slightly touching the tissue so that fluid passage between the two parts of each donor cell was slow (if not impossible). […]
In one of the diffusion chambers (which served as a control), permeation of octreotide via the tissue segment was measured without the application of electrical stimulation. […] The samples were analyzed by HPLC-UV 205 nm spectroscopy (Hewlett-Packard 1100, acetonitril: phosphate buffer (pH 7.4) (40:60), C18 column) for their content of octreotide.

jejunal tissue = test: Octreotide permeation via jejunal tissue in diffusion chamber 500 with LITV pulses (FIGS. 27-36); format: in vitro ADME, Wistar rat; details: for permeation efficiency, effect of pulse cycle: 1 millisecond (FIG. 31); for octreotide permeation vs control group: 3 mA (FIG. 29); for permeation efficiency, effect of electrode material: 1 millisecond (FIG. 34)
Procedure: Reference is now made to FIG. 26, which is a schematic cross-sectional illustration of an experimental diffusion chamber 500, and FIGS. 27-36, which are graphs showing in vitro experimental results generated in accordance with respective embodiments of the present invention. A number of 300 g Wistar rats were anaesthetized using Ketamine (100 mg/kg) and Xylazine (10 mg/kg). Two 3 cm-long sections 510 of the intestine were removed from each rat and opened along the mesenterial line so that two rectangular pieces of tissue were available from each rat (a single tissue section 510 is shown in FIG. 26). For the experiments described hereinbelow with reference to FIGS. 27-35, the intestinal sections were taken from the upper jejunum, while for the experiment described hereinbelow with reference to FIG. 36, the intestinal sections were taken from the upper jejunum, proximal ileum, and distal ileum. The serosal and muscular layers of the intestinal sections were removed using a microscope cover glass. Each of the intestinal tissue segments was placed on a slide and inserted into diffusion chamber 500.
Diffusion chamber 500 is shaped so as to define a donor cell 520 and an acceptor cell 522, connected by a 28 mm×8 mm window 524. Tissue segment 510 on the slide completely covered window 524. Tissue segment 510 was placed so as to completely cover window 524, thereby separating donor cell 520 and acceptor cell 522. Tissue segment 510 was oriented such that the mucosal side thereof faced donor cell 520, and the serosal side thereof faced acceptor cell 522. Donor cell 520 was filled with 15 ml of Hank's Balanced Salt Solution (HBSS) adjusted to a pH of 7.4 (in mM: 136.9 NaCl, 5.4 KCl, 0.5 MgCl2, 0.4 MgSO4, 4.5 KH2PO4, 0.35 Na2HPO4, 1.0 CaCl2, 4.2 NaHCO3, 5.5 D-Glucose). Acceptor cell 522 was filled with D-Glucose-supplemented Phosphate Buffered Saline (PBS) adjusted to a pH of 7.4 (in mM: 136.9 NaCl, 2.7 KCl, 0.5 MgCl2, 1.5 KH2PO4, 8.1 Na2HPO4, 0.7 CaCl2, 5.5 D-Glucose).
After tissue segment 510 was placed over window 524, the donor cell was divided into two separate compartments 526a and 526b by an electrically-insulating divider 528 positioned to slightly touch tissue segment 510 so that fluid passage between compartments 526a and 526b was slow (if not impossible). (Donor cell 520 was not divided into compartments 526a and 526b in the experiment described hereinbelow with reference to FIG. 33.) The solution was maintained at 37° C. and gassed with 95% O2/5% CO2, supplied via 1 mm ID tubes placed at the bottom of each cell (tubes not shown in FIG. 26).
A single square electrode 530 was placed in each of compartments 526a and 526b of donor cell 520, such that an electrode surface 532 of each electrode was parallel to the surface of tissue segment 510, at a 0.5 mm distance from tissue segment 510 (except for the experiment described hereinbelow with reference to FIG. 32). Electrodes 530 comprised stainless steel (SS316L, 6 mm×6 min) (except for the experiment described hereinbelow with reference to FIG. 34). The distance between the centers of electrode surfaces 532 was 10 mm. After tissue segment 510 was in position over window 524 for 30 minutes, the HBSS in donor cell 520 was replaced with 1 mg/ml octreotide acetate (Sandostatin) containing HBSS.
In each of the experiments described hereinbelow with reference to FIGS. 27-36, beginning upon replacement of the HBSS in donor cell 520 with octreotide, a train of LITV pulses was applied through electrodes 530, and the permeation of octreotide from donor cell 520 to acceptor cell 522 via tissue segment 510 was measured. This train of monophasic rectangular pulses was generated using a Thurlby Thandar Instruments TGP110 pulse generator. The voltage output of the pulse generator was adjusted so that a 3 mA current flowed through the electrodes. An EZ Digital Co. DM330 Digital Multimeter, connected serially to the electrodes, was used to measure current. […]

distal ileum tissue = test: Octreotide permeation via distal ileum tissue in diffusion chamber 500 with LITV pulses (FIG. 36); format: in vitro ADME, Wistar rat; details: 18 Hz, 3 mA, 1 millisecond vs control, at 7 minutes (FIG. 36)
Procedure: as §1, §2

For `COC(=O)[C@@H](N)CCCNC(=N)N[N+](=O)[O-]` [L-NAME, N^G-Nitro-L-Arginine methyl ester], which “proabsorptive effect of NO” value [1] is on record?
Its value is “significantly reduced”.

What about the “effect of NOS inhibition on peptide permeation vs non-NOS-inhibited groups” value (rat jejunum; 1 mM L-NAME, with and without stimulation) of the same molecule?
Its value is “substantially less”.

For `CNC(=N)NCCC[C@H](N)C(=O)O` [L-NMA, N^G-methyl-L-arginine], which “proabsorptive effect of NO” value [1] is on record?
Its value is “significantly reduced”.

For `N=C(NCCC[C@H](N)C(=O)O)N[N+](=O)[O-]` [L-NNA, N^G-nitro-L-arginine], which “electrically-induced NO synthesis and release” value [2] is on record?
Its value is “almost entirely prevented”.

And the “proabsorptive effect of NO” value [1]?
The value was “significantly reduced”.

Which “penetration of the peptides” value (rat jejunum) does the source give for `CCNC(=O)[C@@H]1CCCN1C(=O)[C@H](CCCNC(=N)N)NC(=O)[C@H](CC(C)C)NC(=O)[C@@H](CC(C)C)NC(=O)[C@H](Cc1ccc(O)cc1)NC(=O)[C@H](CO)NC(=O)[C@H](Cc1c[nH]c2ccccc12)NC(=O)[C@H](Cc1c[nH]cn1)NC(=O)[C@@H]1CCC(=O)N1` [Leuprolide] here?
Its value is “about 0.6 ug/ml”.

For `CC(C)N(CCCN)/[N+]([O-])=N/O` [NOC5], which absorption of macromolecules (rat intestine) is on record?
Its absorption of macromolecules is “improve absorption of macromolecules”.

For `CNCCCN(C)/[N+]([O-])=N/O` [NOC7], which absorption of macromolecules (rat intestine) is on record?
Its absorption of macromolecules is “improve absorption of macromolecules”.

With `CCNCCN(CC)/[N+]([O-])=N/O` [NOC12] as the molecule, how does the absorption of macromolecules (rat intestine) read?
The absorption of macromolecules was “improve absorption of macromolecules”.

Which transepithelial electrical resistance (mouse ileum) does the source give for `CC(=O)N[C@H](C(=O)O)C(C)(C)SN=O` [SNAP, S-nitroso-acetyl-penicillamine] here?
The transepithelial electrical resistance was “decrease in transepithelial electrical resistance”.

With `C[C@@H](O)[C@@H]1NC(=O)[C@H](CCCCN)NC(=O)[C@@H](Cc2c[nH]c3ccccc23)NC(=O)[C@H](Cc2ccccc2)NC(=O)[C@@H](NC(=O)[C@H](N)Cc2ccccc2)CSSC[C@@H](C(=O)N[C@H](CO)[C@@H](C)O)NC1=O` [octreotide, octreotide acetate] as the molecule, how does the “permeation efficiency in different regions of the intestine” value (proximal ileum tissue) read?
The value was “increased permeation efficiency”.

What about the “octreotide permeation into acceptor cell” value [3] of the same molecule?
Its value is “substantially greater increase in octreotide permeation”.

And the “magnitude of permeation efficiency, effect of electrode distance from jejunal tissue” value (jejunal tissue; 0.5 mm vs 3 mm, 18 Hz, 3 mA, 1 millisecond, at 15 minutes (FIG. 32))?
The value was “greater at 0.5 mm than at 3 mm”.

And the “permeation efficiency, effect of pulse cycle” value (jejunal tissue; 1 pulse per cycle, 18 Hz, 3 mA)?
Its value is “greatest permeation efficiency”.

What about the “enhancement ratio, effect of pulse frequency” value (jejunal tissue; 18 Hz among 5-60 Hz tested, 1 millisecond, 3 mA, at 30 minutes (FIG. 28)) of the same molecule?
Its value is “greatest enhancement ratio”.

And the “permeation efficiency, effect of cessation of pulse application” value (jejunal tissue; continuous application vs cessation after 10 minutes, 18 Hz, 3 mA, 1 millisecond (FIG. 35))?
Its value is “substantially greater permeation efficiency”.

What about the “permeation efficiency, effect of electrode insulation” value (jejunal tissue; electrodes not insulated from each other (without divider 528), 18 Hz, 3 mA, 1 millisecond (FIG. 33)) of the same molecule?
The value was “did not increase permeation efficiency”.

And the “permeation efficiency, effect of pulse cycle” value (jejunal tissue; increasing number of pulses per cycle (2, 3), 18 Hz, 3 mA)?
The value was “the permeation efficiency decreased”.

What about the “permeation efficiency in different regions of the intestine” value (jejunal tissue; jejunal tissue, 18 Hz, 3 mA, 1 millisecond vs control, at 7 minutes (FIG. 36)) of the same molecule?
The value was “greatest effect of pulse application”.

And the “enhancement ratio, effect of pulse duration” value (jejunal tissue; pulse duration 1 millisecond among 0.2-3 milliseconds tested, 18 Hz, 3 mA, at 15 minutes (FIG. 30))?
The value was “greatest enhancement ratio”.

And the “octreotide permeation (permeation efficiency)” value (jejunal tissue; pulses 1 millisecond, 18 Hz, 3 mA vs non-stimulated control group (FIG. 27))?
The value was “substantially enhanced octreotide permeation”.

And the “octreotide permeation vs control group” value (jejunal tissue; pulses at 5 Hz, 1 millisecond)?
The value was “did not yield a higher octreotide permeation”.

What about the “octreotide permeation vs control group” value (jejunal tissue; pulses at 60 Hz, 1 millisecond) of the same molecule?
Its value is “did not yield a higher octreotide permeation”.

What about the “permeation efficiency, effect of electrode material” value (jejunal tissue; silver chloride electrodes, 18 Hz, 3 mA) of the same molecule?
The value was “did not increase permeation efficiency”.

And the “permeation efficiency, effect of electrode material” value (jejunal tissue; stainless steel (SS316L) electrodes, 18 Hz, 3 mA)?
Its value is “substantially increased permeation efficiency”.

And the “permeation efficiency, effect of electrode material” value (jejunal tissue; titanium nitride electrodes, 18 Hz, 3 mA)?
The value was “did not increase permeation efficiency”.

What about the “permeation of the peptides” value (rat jejunum; NOS-inhibited (1 mM L-NAME) non-stimulation group, after 45 minutes) of the same molecule?
Its value is “about 0.45 ug/ml”.

And the “permeation of the peptides” value (rat jejunum; NOS-inhibited (1 mM L-NAME) stimulation group (18 Hz, 1 ms, 5 mA), after 45 minutes)?
Its value is “about 0.45 ug/ml”.

And the “permeation of the peptides” value (rat jejunum; non-NOS-inhibited electrical stimulation group (18 Hz, 1 ms, 5 mA), after 45 minutes)?
Its value is “about 1.45 ug/ml”.

What about the “penetration of the peptides” value (rat jejunum; non-stimulation, non-NOS-inhibited control group, after 45 minutes) of the same molecule?
Its value is “about 0.6 ug/ml”.

And the “permeation efficiency in different regions of the intestine” value (distal ileum tissue)?
The value was “positive but less pronounced effect”.
